Consider 4 compounds from patent US4479942A, “Tetrahydrofurnancarboxylic acid derivatives, processes for preparation thereof and pharmaceutical compositions thereof” (Fujisawa Pharmaceutical Co., Ltd., priority 1981, dated 1984).

The MIC is the least concentration at which growth counts as inhibited. A higher MIC goes with weaker potency.

In one data set the test system is Candida albicans OUT6004. As to the kind of experiment: Antimicrobial activity test (in vitro), minimal inhibitory concentration against Candida, pulp assay method. The conditions noted are these: malt agar. Format: cell-based. The text has this: Antimicrobial activity test (in vitro):
Minimal inhibitory concentration (MIC) against Candida: (Candida albicans OUT6004)
Method: Pulp assay method

In data set [1] the test system is Candida albicans FP-633. As to the kind of experiment: Protective efficacy in experimental infection in mice. Format: in vivo, mice (ddY-strains). The conditions noted are these: one hour after i.v. infection, one week after infection. The text has this:
Protective efficacy in experimental infection in mice:
In determining the protective efficacy against experimental infections of Candida in mice, the compound in Example 98 [1-(6-amino-9H-purin-9-yl)-1,3-dideoxy-3-(O-methyl-L-tyrosylamino)-β- D-ribofuranuronic acid dihydrochloride monohydrate] was suspended and diluted in sterile water to provide three concentrations of the drug for testing ddY-strains of mice aged 5 weeks and averaging 20 g in weight. Mice were used in groups of 5 mice each. One hour after the intravenous injection of 3.0×10^6 of Candida albicans FP-633 cells to each mouse, the drug solutions were administered subcutaneously or orally at the level mentioned below respectively.
One week after the infection, the test was considered complete and survival records of that day were made.

For a further data set, the system named is Candida albicans FP-616. As to the kind of experiment: Minimal inhibitory concentration against Candida albicans, agar dilution method (FP-616). The data set is classed as cell-based. The conditions noted are these: FP616, malt agar. The text has this:
(§1) Antimicrobial activities of the compound in Example 98 [1-(6-amino-9H-purin-9-yl)-1,3-dideoxy-3-(O-methyl-L-tyrosylamino)-β- D-ribofuranuronic acid dihydrochloride monohydrate] against some species of Candida.
(§2) Minimal inhibitory concentration (MIC) against Candida albicans:
(§3) Method: Agar dilution method
Background: In agar dilution the substance is mixed into plates at graded concentrations.

For data set [2], the system named is Candida albicans FP-633. As to the kind of experiment: Minimal inhibitory concentration against Candida albicans, agar dilution method (FP-633). Format: cell-based. To be noted: FP633, malt agar.
Excerpt: as §1, §2, §3

The nature of data set [3]: Toxicity, intraperitoneal administration into mice. Format: in vivo. The conditions noted are these: more than 1,000 mg/kg.
Another data set has as its system Candida albicans FP-614. The experiment in a line: Minimal inhibitory concentration against Candida albicans, agar dilution method (FP-614). The conditions noted are these: FP614, malt agar. The data set is classed as cell-based.
Excerpt: as §1, §2, §3

Data set [4] is described as follows: Solubilities to various solvents.
A further data set concerns Candida albicans FP-620. The experiment in a line: Minimal inhibitory concentration against Candida albicans, agar dilution method (FP-620). The data set is classed as cell-based. To be noted: FP620, malt agar.
Excerpt: as §1, §2, §3

For the next data set, the system named is Candida albicans FP-622. As to the kind of experiment: Minimal inhibitory concentration against Candida albicans, agar dilution method (FP-622). Format: cell-based. The conditions noted are these: FP622, malt agar.
Excerpt: as §1, §2, §3

Another data set has as its system Candida albicans FP-618. As to the kind of experiment: Minimal inhibitory concentration against Candida albicans, agar dilution method (FP-618). The data set is classed as cell-based. To be noted: FP618, malt agar.
Excerpt: as §1, §2, §3

Values after ≈ are worked out from the molar mass of the structure shown.

Regarding `Nc1ncnc2c1ncn2[C@@H]1O[C@H](C(=O)O)[C@@H](NC(=O)C(N)Cc2ccc([N+](=O)[O-])cc2)[C@H]1O` (mixture of isomers) [Example 73, 1-(6-Amino-9H-purin-9-yl)-1,3-dideoxy-3-[β-(4-nitrophenyl)-D,L-alanylamino]-β-D-ribofuranuronic acid], the MIC against Candida albicans OUT6004 came out at 31 µg/mL.

`Nc1ncnc2c1ncn2[C@@H]1O[C@H](C(=O)O)[C@@H](NC(=O)[C@@H](N)Cc2ccccc2)[C@H]1O` [Example 39, 1-(6-amino-9H-purin-9-yl)-1,3-dideoxy-3-(L-phenylalanylamino)-β-D-ribofuranuronic acid] showed an MIC against Candida albicans OUT6004 of 31 µg/mL (≈ 72.5 µM).

Consider `COc1ccc(C[C@H](N)C(=O)N[C@H]2[C@@H](O)[C@H](n3cnc4c(N)ncnc43)O[C@@H]2C(=O)O)cc1.Cl.Cl.O` [Example 98, 1-(6-Amino-9H-purin-9-yl)-1,3-dideoxy-3-(O-methyl-L-tyrosylamino)-β-D-ribofuranuronic acid dihydrochloride monohydrate], for which the MIC in the data set on Candida albicans OUT6004 was found to be 16 µg/mL; against Candida albicans FP-616 it was 0.2 µg/mL; against Candida albicans FP-633 [2], 1.6 µg/mL; with Candida albicans FP-614, 0.8 µg/mL; in the data set with Candida albicans FP-620, 0.2 µg/mL; against Candida albicans FP-622 it was 3.1 µg/mL. The compound further had an MIC with Candida albicans FP-618 of 0.8 µg/mL. The Survival/infected was 1/5 in the data set on Candida albicans FP-633 [1] (oral, 10 mg/kg); 3/5 in the data set with Candida albicans FP-633 [1] (oral, 30 mg/kg); 1/5 in the data set with Candida albicans FP-633 [1] (subcutaneous, 5 mg/kg); 4/5 with Candida albicans FP-633 [1] (subcutaneous, 15 mg/kg). Besides, in data set [3], the Toxic symptom entry is on record as “did not result in any toxic symtom”. In addition, the Solubility result in data set [4] (acetone) is recorded as “Insoluble”; in [4] (chloroform) it was “Insoluble”; in data set [4] (ethyl acetate) it was “Insoluble”; in [4] (methanol), “Slightly soluble”; in data set [4] (water), “Slightly soluble”.

The compound `COc1ccc(C[C@H](N)C(=O)N[C@H]2[C@@H](O)[C@H](n3cnc4c(N)ncnc43)O[C@@H]2C(=O)NCC(=O)O)cc1` [Example 55, N-Carboxymethyl-1-(6-amino-9H-purin-9-yl)-1,3-dideoxy-3-(O-methyl-L-tyrosylamino)-β-D-ribofuranuronamide] had an MIC in the data set with Candida albicans OUT6004 of 31 µg/mL (≈ 60.3 µM).
